{"source": "PubChem BioAssay AID1259409", "about": "(Chemical Carcinogenesis Research Information System (CCRIS), 2018)", "origin": "cited, not measured here", "system": "rodent chemically induced tumor inhibition, incidence and multiplicity", "assay": "CCRIS tumor inhibitor studies", "conditions": "Route [Inhibitor]: ORAL, Promoter: NONE USED"}
{"smiles": "CC1=C(/C=C/C(C)=C/C=C/C(C)=C\\C(=O)O)C(C)(C)CCC1", "values": [{"measurement": "tumour outcome (control, treated, inhibition, significance)", "setting": "Carcinogen: N-(4-(5-NITRO-2-FURYL)-2-THIAZOLYL)FORMAMIDE, 24554-26-5, Dose [Inhibitor]: 120 MG/KG DIET DAILY STARTING 1 WK AFTER COMPLETION OF CARCINOGEN TREATMENT AND CONTINUING UNTIL END OF STUDY (STUDY DUR, Species: RAT, Strain/Sex: F344/FEMALE, Target Tissue: Type of Lesion: URINARY BLADDER: PAPILLOMA, Dose [Carcinogen]: 2 G/KG DIET DAILY FOR 10 WK", "result": "10/100 (10%), 12/100 (12%), -20%, p 0.655"}, {"measurement": "tumour outcome (control, treated, inhibition, significance)", "setting": "Carcinogen: N-(4-(5-NITRO-2-FURYL)-2-THIAZOLYL)FORMAMIDE, 24554-26-5, Dose [Inhibitor]: 240 MG/KG DIET DAILY STARTING 1 WK AFTER COMPLETION OF CARCINOGEN TREATMENT AND CONTINUING UNTIL END OF STUDY (STUDY DUR, Species: RAT, Strain/Sex: F344/FEMALE, Target Tissue: Type of Lesion: URINARY BLADDER: CARCINOMA, Dose [Carcinogen]: 2 G/KG DIET DAILY FOR 10 WK", "result": "36/100 (36%), 47/100 (47%), -31%, p 0.024"}, {"measurement": "tumour outcome (control, treated, inhibition, significance)", "setting": "Carcinogen: N-(4-(5-NITRO-2-FURYL)-2-THIAZOLYL)FORMAMIDE, 24554-26-5, Dose [Inhibitor]: 240 MG/KG DIET DAILY STARTING 1 WK AFTER COMPLETION OF CARCINOGEN TREATMENT AND CONTINUING UNTIL END OF STUDY (STUDY DUR, Species: RAT, Strain/Sex: F344/FEMALE, Target Tissue: Type of Lesion: URINARY BLADDER: PAPILLOMA, Dose [Carcinogen]: 2 G/KG DIET DAILY FOR 10 WK", "result": "10/100 (10%), 7/100 (7%), 30%, p 0.446"}, {"measurement": "tumour outcome (control, treated, inhibition, significance)", "setting": "Carcinogen: N-BUTYL-N-(4-HYDROXYBUTYL)NITROSAMINE, 3817-11-6, Dose [Inhibitor]: 0.8 MMOL/KG DIET DAILY FOR 19 WK STARTING 7 D AFTER FINAL CARCINOGEN DOSE (STUDY DURATION: 6 MO), Species: RAT, Strain/Sex: F344/FEMALE, Target Tissue: Type of Lesion: URINARY BLADDER: TRANSITIONAL CELL CARCINOMA, Dose [Carcinogen]: 150 MG 2/WK FOR 6 WK", "result": "28/80 (35%), 7/40 (18%), 49%, p<0.05"}, {"measurement": "tumour outcome (control, treated, inhibition, significance)", "setting": "Carcinogen: N-BUTYL-N-(4-HYDROXYBUTYL)NITROSAMINE, 3817-11-6, Dose [Inhibitor]: 0.8 MMOL/KG DIET DAILY FOR 19 WK STARTING 7 D AFTER FINAL CARCINOGEN DOSE (STUDY DURATION: 6 MO), Species: RAT, Strain/Sex: F344/MALE, Target Tissue: Type of Lesion: URINARY BLADDER: TRANSITIONAL CELL CARCINOMA, Dose [Carcinogen]: 200 MG 2/WK FOR 8 WK", "result": "55/60 (92%), 24/30 (80%), 13%, not significant"}, {"measurement": "tumour outcome (control, treated, inhibition, significance)", "setting": "Carcinogen: N-BUTYL-N-(4-HYDROXYBUTYL)NITROSAMINE, 3817-11-6, Dose [Inhibitor]: 150 MG/G DIET DAILY STARTING 7 D AFTER THE LAST CARCINOGEN DOSE AND CONTINUING THROUGH THE END OF THE STUDY (STUDY DURAT, Species: MOUSE, Strain/Sex: B6D2F1/FEMALE, MALE, Target Tissue: Type of Lesion: URINARY BLADDER: TRANSITIONAL CELL CARCINOMA, Dose [Carcinogen]: 10 MG 2/WK FOR 9 WK", "result": "23/54 (43%), 19/55 (35%), 19%, not significant"}, {"measurement": "tumour outcome (control, treated, inhibition, significance)", "setting": "Carcinogen: N-BUTYL-N-(4-HYDROXYBUTYL)NITROSAMINE, 3817-11-6, Dose [Inhibitor]: 150 MG/KG DIET DAILY STARTING 7 D AFTER THE LAST CARCINOGEN DOSE AND CONTINUING THROUGH THE END OF THE STUDY (STUDY DURA, Species: MOUSE, Strain/Sex: B6D2F1/FEMALE, MALE, Target Tissue: Type of Lesion: URINARY BLADDER: TRANSITIONAL CELL CARCINOMA, Dose [Carcinogen]: 5 MG 2/WK FOR 9 WK", "result": "29/71 (41%), 19/69 (28%), 32%, not significant"}, {"measurement": "tumour outcome (control, treated, inhibition, significance)", "setting": "Carcinogen: N-BUTYL-N-(4-HYDROXYBUTYL)NITROSAMINE, 3817-11-6, Dose [Inhibitor]: 200 MG/G DIET DAILY STARTING 7 D AFTER THE LAST CARCINOGEN DOSE AND CONTINUING THROUGH THE END OF THE STUDY (STUDY DURAT, Species: MOUSE, Strain/Sex: B6D2F1/FEMALE, MALE, Target Tissue: Type of Lesion: URINARY BLADDER: TRANSITIONAL CELL CARCINOMA, Dose [Carcinogen]: 5 MG 2/WK FOR 9 WK", "result": "29/71 (41%), 17/71 (24%), 41%, p<0.05"}, {"measurement": "tumour outcome (control, treated, inhibition, significance)", "setting": "Carcinogen: N-BUTYL-N-(4-HYDROXYBUTYL)NITROSAMINE, 3817-11-6, Dose [Inhibitor]: 200 MG/G DIET DAILY STARTING 7 D AFTER THE LAST CARCINOGEN DOSE AND CONTINUING THROUGH THE END OF THE STUDY (STUDY DURAT, Species: MOUSE, Strain/Sex: B6D2F1/FEMALE, MALE, Target Tissue: Type of Lesion: URINARY BLADDER: TRANSITIONAL CELL CARCINOMA, Dose [Carcinogen]: 10 MG 2/WK FOR 9 WK", "result": "23/54 (43%), 12/54 (22%), 49%, p<0.05"}, {"measurement": "tumour outcome (control, treated, inhibition, significance)", "setting": "Carcinogen: N-BUTYL-N-(4-HYDROXYBUTYL)NITROSAMINE, 3817-11-6, Dose [Inhibitor]: 200 MG/KG DIET DAILY STARTING 7 D AFTER LAST CARCINOGEN DOSE AND CONTINUING THROUGH THE END OF STUDY (STUDY DURATION: 6, Species: MOUSE, Strain/Sex: C57BL/MALE, Target Tissue: Type of Lesion: URINARY BLADDER: NEOPLASM, Dose [Carcinogen]: 7.5 MG 2/WK FOR 6 WK", "result": "9/24 (38%), 1/19 (5%), 87%, p<0.05"}]}
